According to patent US20200352889A1, “CYSTATHIONINE COMPOSITIONS AND METHODS OF TREATMENT FOR HEALTH CONDITIONS” (THE REGENTS OF THE UNIVERSITY OF COLORADO, A BODY CORPORATE, priority 2011, published 2020):
Entries after “also recorded” stand apart in the source; their conditions may differ.

Assays:
[1] = system: KDEL containing chaperones and GADD153; experiment: Immunohistochemical analysis of unfolded protein response in liver and kidney; format: in vivo, mouse
Procedure: While it is not necessary to understand the mechanism of action, it is believed cystathionine may protect against ER stress induced cell injury by increasing the induction of molecular chaperones like Grp78 or by inhibiting the induction of GADD153. In order to investigate the mechanism by which cystathionine is protecting against ER stress induced tissue injury, an immunohistochemical analysis of liver and kidney tissues samples from the experimental groups described above was performed. […] Strong induction of KDEL containing proteins and GADD153 by tunicamycin treatment in both liver and kidneys of the tunicamycin groups was observed (FIG. 8, Panel B).
Prolonged perturbation of the ER is a powerful inducer of the C/EBP family member GADD153 (also known as CHOP) that plays a key role in the induction of programmed cell death by ER stress (10). Previous work has shown that GRP78 over-expression in Chinese hamster ovary cells attenuates both the ER stress-signal and the cell death that is observed in response to calcium ionophores (22) and blocking the expression of GRP78 by means of antisense constructs increase the lethality of agents that promote ER stress (23). Within this context, it is conceivable that cystathionine could protect against ER stress induced cell injury by increasing the induction of molecular chaperones like Grp78 or by inhibiting the induction of GADD153. […]

293AD cells = experiment: Tunicamycin-induced cell death, LDH release and phase-contrast, 293AD cells; format: cell-based, human
Procedure: (§1) Cells were seeded in triplicate at ˜75% confluence and pre-treated with either PPG) (5 mM), Cystathionine (1 mM) or with just complete media (DMEM, 10% FBS) as a control. After 24 hr pre-treatment, cells looked normal, with minimal floating cells. Fresh media with 1% FBS was then added to each well, the cells were further treated with Tm (either 5 or 10 ug)/ml. After 18 hr. treatment with Tunicamycin, cells were photographed under phase-contrast with a Zeiss Axiovert 25 microscope for evidence of dead floating cells. Cells from the group treated solely with tunicamycin became strikingly hyper-refringent, detached from the substratum and floated in the media. […] To further evaluate a role for cystathionine in resisting the induction of cell death by tunicamycin, cell lysis was quantified by assaying lactate dehydrogenase (LDH) release. The enzyme activity was determined spectrophotometrically and the amount of enzyme leak was expressed as a percentage of the LDH activity observed in untreated control cells.
HepG2, 293AD and a23 cells were seeded in triplicate at ˜75% confluence and were pre-treated with either propargylglycine (PPG) (5 mM) or cystathionine (5 mM) in complete media (DMEM, 10% FBS). After 24 hours, fresh media with 1% FBS was added to each well. Cells were then further treated with tunicamycin (either 5 or 10 ug/ml) for 18 hr treatment. Cells were subsequently photographed under phase-contrast with a Zeiss Axiovert 25 microscope for evidence of dead floating cells. To quantify cell death the media supernatant was collected for LDH release assay using a kit from Roche Applied Science (Cat.No.11 644 793 001) according to the manufacturer's standard protocol where cytotoxicity (%)=((experimental value-low control/(high control-low control))×100.
as §1, with “24 hr.” for “24 hr”

a23 cells = experiment: Tunicamycin-induced cell death, LDH release, transsulfuration negative a23 cells; format: cell-based, Chinese hamster; settings: CBS and CGL negative, p=0.7301
Text: However, examination of a direct effect of exogenously added cystathionine is not currently possible in a whole animal model because of complications with the compounds solubility and rapid kinetics of its excretion. In order to investigate the direct effects of cystathionine against ER stress-induced cell death, the cytotoxicity of tunicamycin in the human embryonic kidney cell line 293AD and the human hepatoma cell line HepG2 in the presence and absence of both PPG and exogenously added cystathionine was examined. Preliminary experiments confirmed that both of these cell lines express both CBS and CGL (data not shown). In order to investigate the possible protective effects of cystathionine in the absence of transsulfuration, these experiments were repeated with the CBS and CGL negative Chinese hamster fibroblast line a23 (6).
Cells were seeded in triplicate at ˜75% confluence and pre-treated with either PPG) (5 mM), Cystathionine (1 mM) or with just complete media (DMEM, 10% FBS) as a control. […] To further evaluate a role for cystathionine in resisting the induction of cell death by tunicamycin, cell lysis was quantified by assaying lactate dehydrogenase (LDH) release. The enzyme activity was determined spectrophotometrically and the amount of enzyme leak was expressed as a percentage of the LDH activity observed in untreated control cells. […]

HepG2 cells = experiment: Tunicamycin-induced cell death, LDH release, HepG2 cells; format: cell-based, human; settings: data not shown
Procedure: as §1, with “control cells. […]” for “control cells.”
Cells were seeded in triplicate at ˜75% confluence and pre-treated with either PPG) (5 mM), Cystathionine (1 mM) or with just complete media (DMEM, 10% FBS) as a control. […] To further evaluate a role for cystathionine in resisting the induction of cell death by tunicamycin, cell lysis was quantified by assaying lactate dehydrogenase (LDH) release. […]

SMILES: C#CCC(N)C(=O)O (racemic) [PPG, D,L-2-amino-4-pentynoic acid]
- expression of KDEL signature proteins ([1]; PPG treatment alone): did not induce expression
- level of induction of KDEL containing chaperones and GADD153 by tunicamycin ([1]; tunicamycin + PPG, liver and kidney): did not appear to affect the level of induction
- prevention of tunicamycin-induced cell death (LDH release) (293AD cells; 293AD cells, tunicamycin 5 μg/ml 18 hr, 24 hr pre-treatment PPG 5 mM): largely prevented
- reduction in cell death (LDH release) (293AD cells; 293AD cells, tunicamycin 10 μg/ml 18 hr, 24 hr pre-treatment PPG 5 mM or cystathionine 1 mM, p<0.0001): 11 fold
- floating dead cells (phase-contrast) (293AD cells; tunicamycin 18 hr after PPG or cystathionine pre-treatment): No floating dead cells were observed; also recorded: not evident
- cytoprotection against tunicamycin induced cell death (a23 cells): no significant cytoprotection
- protection against tunicamycin-induced cell death compared with 293AD cells (HepG2 cells): Essentially identical results
